Measurements published in patent publication US20090264342A1, “COMPOSITIONS AND METHODS FOR ANTIBIOTIC POTENTIATION AND DRUG DISCOVERY” (priority 2006, published 2009).
Values after ≈ are worked out from the molar mass of the structure shown.

Assays:
Type in all cases: cell-based
[1] = tested on: S. aureus strains wt, recAmut, grlA542, grlA542recAmut; assay: MIC for S. aureus wt, recAmut, grlA542 and grlA542recAmut strains; details: Staphylococcus aureus
[2] = tested on: S. aureus strain RN4220; assay: MIC of Nor for S. aureus RN4220 and RN4220 recA−; details: Staphylococcus aureus
Description: The growth and response to quinolone of S. aureus strain RN4220 (wild type) and its recA^− derivative (RN4220 recA^−) were first examined. These strains have been described in the literature (Bayles et al., 1994). The RN4220 recA null mutant (RN4220 recA^−) contains the recA569 allele and is referred to KB103 in Bayles, et al., 1994. […] MICs were determined as described above.
Further details of the assay are as follows: Overnight mutant MG1655 or Staph cultures of clones were grown in 5 mL of LB with appropriate selective agents at 37° C. with shaking. A morning culture was started in a 96 well plate with 16 μL of cells into 1.6 mL of LB and the appropriate plasmid selective agent. […] Serial dilutions were done with 100 μL of drug into 100 μL of H2O. […] 20 μL of each log phase culture was put into a well of one row of a 96 well plate containing […] of LB and the appropriate selective agent. 4.5 μL of each drug concentration was arrayed into the 8 rows of a sterile 300 μL 96-well plate. 250 μL of inoculated culture was added to each column of the sterile 300 μL 96-well plate with drug. The final plate has a different clone in each column and a different Norfloxacin concentration in each row. Plates were grown overnight at 37° C. with shaking. The OD600 of the plate was measured after 16 hours.

[3] = tested on: SOS response (LexA auto-cleavage) in E. coli; assay: SOS induction, LexA-controlled GFP DNA damage sensor; details: 5 μg/mL Amp, 5 μg/mL Kan, 25 ng/mL Nor; 3 hours after addition
Description: FIG. 37 is a set of two graphs showing SOS induction in E. coli by bactericidal antibiotics. Activation of the SOS response was monitored using an engineered sensor construct that employs the LexA repressor for control of Green Fluorescent Protein (GFP) expression. Shown are representative GFP histogram measurements taken 3 hours after addition of a, bactericidal antibiotics (5 μg/mL Amp, 5 μg/mL Kan, 25 ng/mL Nor). b, Log change in CFU/mL of ΔrecA E. coli following exposure to 5 μg/mL Kanamycin (open diamonds), 25 ng/mL Norfloxacin (open triangles), and 5 μg/mL Ampicillin (open circles). For comparison, CFU/mL are also shown for widltype E. coli exposed to 5 μg/mL Kanamycin (diamonds), 25 ng/mL Norfloxacin (triangles), and 5 μg/mL Ampicillin (circles), as well as a lower concentration of norfloxacin in these experiments to highlight the significant increase in killing in a recA knockout.
DNA damage sensor construction. The DNA sensor construct with ampicillin resistance was described previously (D. J. Dwyer et al., “Superoxide and hydroxyl radicals contribute to gyrase inhibitor-mediated cell death in E. coli”, 2007 accepted by Mol. Syst. Biol., which is incorporated herein by reference in its entirety).
Hydroxyl radical and DNA damage sensor experiments using the flow cytometer. […]
Hydroxyl radical are extremely toxic, and will readily damage membrane lipids, proteins and DNA. […]

[4] = tested on: E. coli MG1655; assay: Hydroxyl radical formation (HPF dye, flow cytometry) in E. coli; details: E. coli; 250 ng/mL norfloxacin, 5 μg/mL ampicillin, 5 μg/mL kanamycin; bacteriostatic drugs; 3 hours after addition
Description: (§1) Growth Conditions. In the experiments, the growth and survival of untreated exponential phase E. coli, or S. aureus, were compared to cultured treated with antibiotics at the above concentrations. E. coli cultures were treated with norfloxacin, kanamycin, ampicillin, rifamycin SV, chloramphenical, tetracycline, erythromycin, or spectinomycin, where appropriate, S. aureus cultures were treated with norfloxacin, vancomycin or chloramphenical, where appropriate.
(§2) Hydroxyl radical and DNA damage sensor experiments using the flow cytometer. To monitor the occurrence of DNA damage, the engineered DNA damage sensor was used, which responds to auto-cleavage of LexA by activating expression of gfpmut3b. All the drug treatments and the no-drug controls were collected with both the kanamycin- and ampicillin-resistant version of the plasmid, with the exception of the ampicillin treatment (kanamycin plasmid only) and the kanamycin treatment (ampicillin plasmid only). All data were collected using a Becton Dickinson FACSCalibur flow cytometer (Becton Dickinson, San Jose, Calif.) with a 488-nm argon laser and a 515- to 545-nm emission filter (FL1) at low flow rate. The following PMT voltage settings were used: E00 (FSC), 360 (SSC) and 700 (FL1). To detect hydroxyl radical formation, the fluorescent reporter dye, 3′-(p-hydroxyphenyl) fluorescein (HPF, Invitrogen, Carlsbad, Calif.) was used at a concentration of 5 μM (1:1000) dilution), which is oxidized by hydroxyl radicals with high specificity. The following PMT voltage settings were used: E00 (FSC), 360 (SSC) and 825 (FL 1). Calibrite beads (Becton Dickinson) were used for instrument calibration.
Flow data were processed and analyzed with MATLAB (MathWorks, Natick, Mass.) to construct figures. At least 50,000 cells were collected for each sample. In all experiments, cells were grown as described above. Samples were taken immediately before addition of drug (time zero), then every hour for 3 hours. At each timepoint, approximately […] were collected, washed once and resuspended in filtered 1×PBS, pH 7.2 (Fisher Scientific), and fluorescence was measured on the flow cytometer.
In the present study, the Applicants chose to investigate whether hydroxyl radical formation also contributes to antibiotic-induced cell death in bacteria. Using the dye hydroxyphenyl fluorescein, HPF, which is oxidized by hydroxyl radicals with high specificity, hydroxyl radical formation was first observed over a range of hydrogen peroxide concentrations known to induce hydroxyl radicals through the reduction of hydrogen peroxide by ferrous iron. In this manner, it was possible to establish the scale of hydroxyl radical formation detectable using this dye via flow cytometry.

[5] = tested on: wild-type strain of S. aureus; assay: Hydroxyl radical formation (HPF dye, flow cytometry) in S. aureus; details: norfloxacin, chloramphenical
Description: For work with S. aureus, a Staphylococcus aureus subspecies aureus Rosenback strain was used that was obtained from ATCC (29740).
as §1, §2

CCn1cc(C(=O)O)c(=O)c2cc(F)c(N3CCNCC3)cc21 [Nor, norfloxacin]
MIC ([1]; strain grlA542 (quinolone resistant)): 12.5 µg/mL (≈ 39.1 µM)
MIC ([1]; strain grlA542recAmut): 1.56 µg/mL (≈ 4.89 µM)
MIC ([1]; strain recAmut): 0.19 µg/mL (≈ 0.595 µM)
MIC ([1]; strain wt): 0.78 µg/mL (≈ 2.44 µM)
MIC ([2]; RN4220, RN4220): 1.53 µg/mL
MIC ([2]; RN4220, RN4220 recA−): 0.38 µg/mL
SOS activity (LexA-driven GFP expression) [3]: significant increase in SOS activity
hydroxyl radical formation [4]: induce hydroxyl radical formation
hydroxyl radical formation [5]: increase in hydroxyl radical production
